Experimental data published in patent EP0664121A1, “Inhibition of ldl oxidation and atherosclerosis” (ELI LILLY AND COMPANY, priority 1993, dated 1995).

Legend:
[1] = system: Resident macrophages from the mouse peritoneal cavity; experiment: Macrophage-mediated oxidation (cellular modification) of LDL, TBAR values; assay type: cell-based; conditions: LDL 1 mg/ml, 24 hrs, media-alone value subtracted
Experimental: Resident macrophages from the mouse peritoneal cavity were plated at 1 x 10⁶ cells per well in F10 media without serum. […] The wells designated media alone represents LDL incubated overnight on the same plate with F10 media without cells. This value was subtracted from the TBAR values obtained in the presence of resident macrophages and reflects the extent of cellular modification of LDL.

LDL = experiment: Thiobarbituric acid assay of copper-induced LDL peroxidation; assay type: biochemical; conditions: 250 µg LDL in 1 ml, 5 µM CuSO₄, 5-18 hrs at 37 degrees C
Experimental: The thiobarbituric acid assay as described by Schuh et al., (PNAS 75: 3173, 1978) and modified by Morel et al., (Lab Invest 55: 419, 1986) was used to determine the degree of inhibition of LDL peroxidation by estradiol and Compound A of the invention. A 1 ml solution containing 250 micrograms (µg) of LDL with either estradiol or Compound A of the invention in amounts varying from 1-30 µM is incubated for 5-18 hrs at 37 degrees C in the presence of 5 µM CuSO₄. Following incubation, 1 ml of 25% trichloroacetic acid and 1 ml of 1% thiobarbituric acid is added. All samples are boiled for 45 minutes and fluorescence is measured at 515 nm excitation and 553 nm emission wavelengths. (Compound A is a compound of formula 1 wherein R₁ and R₃ are hydrogen, and R₂ is 1-pyrrolidino).

| Compound | TBAR Units ([1]; 25 µM compound) [TBAR Units] | TBAR Units ([1]; 1 µM compound) [TBAR Units] | TBAR Units ([1]; 2.5 µM compound) [TBAR Units] | TBAR Units ([1]; 5 µm compound) [TBAR Units] | TBAR Units (LDL; 1µM compound) [TBAR UNITS] | TBAR Units (LDL; 5µM compound) [TBAR UNITS] | TBAR Units (LDL; 25µM compound) [TBAR UNITS] |
| --- | --- | --- | --- | --- | --- | --- | --- |
| C[C@]12CC[C@@H]3c4ccc(O)cc4CC[C@H]3[C@@H]1CC[C@@H]2O [Estradiol, estradiol, reference compound] | 30 | – | – | – | – | – | – |
| O=C(c1ccc(OCCN2CCCC2)cc1)c1c(-c2ccc(O)cc2)sc2cc(O)ccc12 [Compound A] | – | 129 | 75 | 30 | 142 | 109 | 78 |
